Measurements: US20090257999A1, “Method of preventing contrast-induced nephropathy” (Inotek Pharmaceuticals Corporation, priority 2007, published 2009)

Tests used:
Type in all cases: in vivo, rat
diabetic rats [1] = experiment: CIN animal model, Example 1: plasma urea and creatinine (glomerular dysfunction)
Procedure: (§1) Male Wistar rats (150-200 g; Harlan Nossanr) were housed in a controlled environment and provided with standard rodent chow and water.
(§2) After 12 hours of fasting, the animals received a single 60 mg/kg intravenous (i.v.) injection of streptozotocin (Sigma, St. Louis, Mo.) in 10 mM sodium citrate buffer, pH 4.5 (see figure showing CIN model). Control non-diabetic animals were fasted and received citrate buffer alone. After 24 hours, animals with blood glucose levels greater than 250 mg/dl were considered diabetic. All experiments were performed 10 days following the induction of diabetes. The diabetic state was evaluated daily by determination of the blood glucose levels. Upon the induction of the diabetic state the animals were presenting with a major risk factor pre-disposing the animals to CIN after the administration of contrast media.
Ten days following the induction of diabetes the rats were anesthetized with 90 mg/kg ketamine i.m. and 10 mg/kg xylazine i.m. and were treated with the contrast agent iomeprol (10 mL/kg injected via the lateral tail vein) or with 0.9% normal saline. The contrast agent used was the low osmolar non-ionic monomer iomeprol (Iomeron, 400 mgI mL-1; Bracco SpA, Milan, Italy) with an osmolality of 726±34 mosmol/kg H2O. Upon completion of surgical procedures, the animals were randomly allocated to eleven different experimental groups as tabulated below:
(§3) Experimental model for assessing the effects of Metalloporphyrin A on CIN: Diabetic (n=8) for group #'s 1-9 or wild-type rats (n=10) for group #'s 10 and 11 were treated with drug 60 min prior to contrast agent administration. At the “0” time point, Iomeprol was administered with ensuing drug intervention dosing every 12 hours for Metalloporphyrin A from 24-84 hours or every 24 hours for NAC from 24-72 hours. At the 96 hour time point, kidneys were harvested for histopathology, MPO and MDA measurements. From 0-96 hours, plasma samples from all animals per group were screened for urea, creatinine, fractional excretion of Na^+ and NGAL.
(§4) At the indicated time point blood samples were collected via the lateral tail vein into S1/3 tubes containing serum gel. The samples were centrifuged (6000 r.p.m. for 3 min) to separate plasma. All plasma samples were analyzed for biochemical parameters within 24 hours of collection. Plasma concentrations of urea and creatinine were measured as indicators of impaired glomerular function. Urine samples were collected at 96 hour after contrast agent administration and the volume of urine produced was recorded. Urine concentrations of Na^+ were measured and were used in conjunction with plasma Na^+ concentrations to calculate fractional excretion of Na^+ (FENa) using standard formulae, which was used as an indicator of tubular function.

diabetic rats [2] = experiment: CIN animal model, Example 1: fractional excretion of Na+ (FENa, tubular function); conditions: at 96 hours
Procedure: as §1
as §2, with “Upon the induction of the diabetic state the animals were presenting with a major risk factor pre-disposing the animals to CIN after the administration of contrast media.” left out
as §4, with “serum gel. […] All plasma” for “serum gel. The samples were centrifuged (6000 r.p.m. for 3 min) to separate plasma. All plasma”, “tubular function. […]” for “tubular function.”

[3] = test system: malondialdehyde (MDA) in kidneys; experiment: Kidney malondialdehyde (MDA) levels, Example 1; conditions: at 96 hours
Procedure: as §3
Levels of malondialdehyde (MDA) in kidneys were determined as an indicator of lipid peroxidation following a protocol described previously (Davenport et. al. Clin. Transplant. 9 (3 Pt 1):171-51995).
Kidney tissue was weighed and homogenized in a 1.15% (wt/vol) KCl solution. A […] aliquot of homogenate was then removed and added to a reaction mixture containing […] 8.1% (wt/vol) lauryl sulfate, 1.5 mL 20% (vol/vol) acetic acid (pH 3.5), 1.5 mL 0.8% (wt/vol) thiobarbituric acid, and 700 mL distilled water. Samples were then boiled for one hour at 95° C. and centrifuged at 3000 g for 10 minutes. The absorbance of the supernatant was measured spectrophotometrically at […]. MDA levels were expressed as μM/100 mg wet tissue.

[4] = test system: Neutrophil gelatinase-associated lipocalin (NGAL); experiment: Plasma NGAL by ELISA, Example 1; conditions: diabetic rats + i.v. Iomeprol; Metalloporphyrin A 1 mg/kg or NAC 10 mg/kg; versus drug placebo; readings 0-96 hours
Procedure: as §3
Neutrophil gelatinase-associated lipocalin (NGAL) has recently been proposed as a real-time indicator of active kidney damage by Mori, K., Nakao, K., Kidney International (2007) 71, 967-970. The plasma from 5 different diabetic animals per experimental group were taken for measurement of NGAL by ELISA as outlined below:
1) For diabetic rats without contrast agent, non-diluted plasma was used. For diabetic rats with contrast agent, plasma samples were diluted 1:400 with saline prior to use.
100 microliter diluted/non-diluted plasma samples or recombinant NGAL protein (25-1000 ng/ml) were added to pre-coated ELISA plates containing a monoclonal antibody raised against NGAL. […]
5) Plates were read at an absorbance of 450 nm.

[5] = test system: ICAM-1, Nitrotyrosine and PAR expression; experiment: Immunohistochemical localization of ICAM-1, nitrotyrosine and poly(ADP-ribose) in kidney, Example 1; conditions: diabetic rats + Iomeprol; metalloporphyrin A 1 mg/kg 60 min prior to Iomeprol, or NAC 10 mg/kg
Procedure: as §3
Rat kidneys fixed in 10% (wt/vol) neutral buffered paraformaldehyde and […] sections were prepared from paraffin-embedded tissues. After deparaffination, endogenous peroxidase was quenched using 0.3% (vol/vol) H2O2 in 60% methanol for 30 minutes. The sections were permeabilized using 0.1% (wt/vol) Triton X-100 in phosphate-buffered saline (PBS; 0.01 mol/L, pH 7.4) for 20 minutes. Nonspecific adsorption was minimized by incubating sections in 2% (vol/vol) normal goat serum in PBS for 20 minutes. Endogenous avidin- and biotin-binding sites were blocked by sequential incubation for 15 minutes with avidin (DBA, Milan, Italy) and biotin (DBA, Milan, Italy), respectively. The sections were then incubated overnight with primary antinitrotyrosine antibody (1:1000), anti-PAR antibody (1:500) and anti-ICAM-1 antibody (1:500). Separate sections were also incubated with control solutions consisting of PBS alone or a 1:500 dilution of nonspecific purified rabbit IgG (DBA). Specific labeling was detected using a biotin-conjugated goat antirabbit IgG (DBA) and avidin-biotin peroxidase (DBA). Samples were then viewed under a light microscope.

[6] = diabetic rats + i.v. Iomeprol 10 ml/kg, Metalloporphyrin A 1000 μg/kg or NAC 10 mg/kg i.p., at 48, 72 and 96 hours
[7] = diabetic rats + i.v. saline (no contrast agent), NAC 10 mg/kg i.p., at 72 and 96 hours
[8] = diabetic rats + i.v. Iomeprol, Metalloporphyrin A 30-1000 μg/kg or NAC 10 mg/kg i.p.
[9] = diabetic rats + i.v. saline (no contrast agent), Metalloporphyrin A 1000 μg/kg or NAC 10 mg/kg i.p.

CC(=O)N[C@@H](CS)C(=O)O [NAC, N-acetylcysteine]
plasma creatinine concentration (diabetic rats [1]; [6]): reductions | plasma urea concentration (diabetic rats [1]; [6]): reductions | plasma creatinine concentration (diabetic rats [1]; [7]): significantly reduced the increase | plasma urea concentration (diabetic rats [1]; [7]): significantly reduced the increase | fractional excretion of sodium (FENa) (diabetic rats [2]; [8]): significant reductions | fractional excretion of sodium (FENa) (diabetic rats [2]; [9]): significantly reduced the increase | MDA levels in the kidney [3, 8]: significant reductions | MDA levels in the kidney [3, 9]: significantly reduced the increase | plasma NGAL levels [4]: significantly lower | ICAM-1 staining/expression in kidney medulla [5]: afforded protection | Nitrotyrosine staining/expression in kidney medulla [5]: afforded protection | PAR staining/expression in kidney medulla [5]: afforded protection
